Laboratory results from patent US9169259B2, “Imidazopyridazine compounds” (Hoffmann-La Roche Inc., priority 2011, dated 2015).

Target: recombinant human SYK360-635 (Homo sapiens (Human), UniProt P43405)
Experiment: SYK kinase assay (33P ATP filtration, IC50 of SYK inhibition)
Assay type: biochemical
Conditions: truncated SYK aa 360-635 0.5 nM, ATP 20 μM, peptide 5 μM, 30° C. 15 min; read-out: ENZYME_FILTRATION_IC50
Description: Determination of IC50 of Spleen Tyrosine Kinase (SYK) Inhibition:
SYK kinase assay is a standard kinase assay adapted to a 96 well plate format. This assay is performed in 96-well format for IC50 determination with […] which represented 10 half log dilutions and a 40 μL reaction volume. The assay measures the incorporation of radiolabeled ^33P γATP into an N-terminally biotinylated peptide substrate, derived from naturally occurring phosphoacceptor consensus sequence (Biotin-11aa DY*E). Phosphorylated products were detected upon termination of reactions with EDTA and the addition of Streptavidin coated beads.
Assay plates: 96-well MultiScreen 0.65 um filter plates (Millipore Cat. No.: MADVNOB10)
final concentration: 50 mM HEPES pH7.5
BSA: Bovine Serum Albumin Fraction V, fatty acid free (Roche Diagnostics GmbH, Cat. No. 9100221) diluted to a final concentration of 0.1%
Assay Dilution Buffer (ADB): 50 mM HEPES, 0.1 mM EGTA, 0.1 mM Na Vanadate, 0.1 mM β-glycerophosphate, 10 mM MgCl2, 1 mM DTT, 0.1% BSA, pH 7.5
Bead wash buffer: 10 g/L PBS (Phosphate buffered saline) with 2M NaCl+1% phosphoric acid.
DMSO and the mixture was incubated for 10 min at RT.
The kinase reaction was initiated by the addition of 10 μL 4× substrate cocktail containing the DYE peptide substrate [0 or 5 μM], ATP [20 μM] and ^33PγATP [2 μCi/r×n]. After incubation at 30° C. for 15 min, the reaction was terminated by the transfer of 25 μL of the reaction sample to a 96 well 0.65 μm Millipore MADVNOB membrane/plate containing 200 μL 5 mM EDTA and 20% Streptavidine coated beads in PBS.
After the last wash membrane/plates were transferred to an adaptor plate, heat dried for 15 min at 60° C., and 50 μL scintillation cocktail was added to each well and 4 h later the amount of radioactivity was counted in a top counter.

IC50	SMILES
0.0606 µM	CCN(CC)CCOc1ccc(-c2cc(Nc3cccc(N4CCCC4C)n3)c3nccn3n2)cc1 (stereo not drawn) [Example I-92, {6-[4-(2-Diethylamino-ethoxy)-phenyl]-imidazo[1,2-b]pyridazin-8-yl}-[6-(2-methyl-pyrrolidin-1-yl)-pyridin-2-yl]-amine]
0.949 µM	COc1ccc(Nc2cc(-c3cccc(C(=O)O)c3)nn3ccnc23)nc1OC [Example I-95, 3-[8-(5,6-Dimethoxy-pyridin-2-ylamino)-imidazo[1,2-b]pyridazin-6-yl]-benzoic acid]
0.103 µM	CNC(=O)c1ccc(NC(=O)c2cccc(-c3cc(Nc4ccc(OC)c(OC)n4)c4nccn4n3)c2)cc1 [Example I-96, 3-(8-(5,6-Dimethoxypyridin-2-ylamino)imidazo[1,2-b]pyridazin-6-yl)-N-(4-(methylcarbamoyl)phenyl)benzamide]
